Key:
[1] = system: mouse; test: Anxiolytic activity: illuminated/darkened cages test on the mouse; format: in vivo; settings: 15 mg/kg, i.p. route, 5 minutes
Text: The anxiolytic effects of the compounds of the invention were studied in accordance with the illuminated/darkened cages test on the mouse (Crawley et al. (1981), Pharmacol. Biochem. Behav., 15, pp 695-699).
The test uses two cages of equal size (20×20×14 cm) made of PVC. One is strongly illuminated by a 100 W bulb ("cold" light) and the other is darkened. The two cages are separated from one another by a small opaque tunnel (5×7 cm). The mice are introduced individually into the tunnel and, once they have entered the darkened cage for the first time, a recording is made over a period of 5 minutes, by means of pads connected to a computer, of the time spent by the animals in the illuminated cage as well as the number of transfers between the darkened cage and the illuminated cage. Each experimental group comprises a minimum of 15 animals.

[2] = target: T1, serotonin reuptake site (Rattus norvegicus, UniProt P31652); test: Displacement of 3H-paroxetine at the serotonin reuptake site; format: binding; settings: rat brain without cerebellum, read-out: IC50, serotonin reuptake sites
T1 construct: rat brain from which the cerebellum has been removed; from tissue; host or cells: rat brain without cerebellum
Protocol: (§1) A-2: Study of the binding of the compounds of the invention to the serotonin reuptake site as well as to 5-HT1, 5-HT1A, 5-HT1B, 5-HT1D, 5-HT2, 5-HT2C, 5-HT4 serotoninergic receptors.
(§2) The binding of the compounds of the invention is measured in accordance with conventional methods.
for the serotonin reuptake site, by the displacement of ^3 H-paroxetinein rat brain from which the cerebellum has been removed, […]

[3] = target: T2, 5-HT1A receptors (Rattus norvegicus, UniProt P19327); test: Displacement of 8-OH-DPAT at 5-HT1A receptors; format: binding; settings: rat hippocampus homogenates
T2 construct: rat hippocampus homogenates; from tissue; host or cells: rat hippocampus
T2 sequence (P19327 1-422): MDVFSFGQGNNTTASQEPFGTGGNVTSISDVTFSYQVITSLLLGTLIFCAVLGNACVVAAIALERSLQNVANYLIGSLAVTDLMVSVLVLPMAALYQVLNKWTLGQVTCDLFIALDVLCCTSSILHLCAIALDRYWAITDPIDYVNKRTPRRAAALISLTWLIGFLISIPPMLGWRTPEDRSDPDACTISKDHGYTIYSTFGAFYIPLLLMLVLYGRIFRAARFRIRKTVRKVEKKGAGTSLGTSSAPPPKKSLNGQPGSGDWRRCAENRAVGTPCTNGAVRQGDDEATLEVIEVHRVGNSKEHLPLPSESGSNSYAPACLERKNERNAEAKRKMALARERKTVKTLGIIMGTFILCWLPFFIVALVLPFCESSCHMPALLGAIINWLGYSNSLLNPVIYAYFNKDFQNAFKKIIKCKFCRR
Protocol: as §1, §2
for 5-HT1A receptors, by the displacement of 8-OH-DPAT in rat hippocampus homogenates, […]

[4] = target: T3, 5-HT3 receptors (Rattus norvegicus, UniProt P35563); test: Displacement of 3H-zacopride at 5-HT3 receptors; format: binding; settings: 0.3-0.4 nM 3H-zacopride, rat area postrema homogenates, pH 7.4, 25° C., 30 minutes
T3 construct: rat area postrema homogenates; from tissue; host or cells: rat area postrema
T3 sequence (P35563 24-483): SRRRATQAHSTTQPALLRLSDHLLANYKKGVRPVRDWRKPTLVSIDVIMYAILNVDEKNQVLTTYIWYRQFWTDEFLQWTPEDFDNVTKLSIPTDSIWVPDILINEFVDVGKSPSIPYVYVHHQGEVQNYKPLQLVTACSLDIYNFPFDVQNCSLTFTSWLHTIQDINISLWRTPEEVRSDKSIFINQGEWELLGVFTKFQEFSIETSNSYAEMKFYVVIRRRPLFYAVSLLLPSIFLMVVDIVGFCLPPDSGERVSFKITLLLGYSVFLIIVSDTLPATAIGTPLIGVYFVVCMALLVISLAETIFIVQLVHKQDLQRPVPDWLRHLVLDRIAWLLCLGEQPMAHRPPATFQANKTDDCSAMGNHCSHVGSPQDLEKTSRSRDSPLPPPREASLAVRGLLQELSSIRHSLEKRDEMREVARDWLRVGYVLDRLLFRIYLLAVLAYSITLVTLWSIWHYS
Protocol: A-1: Study of the binding of the compounds of the invention to 5-HT3 serotoninergic receptors
The binding of the compounds of the invention to 5-HT3 receptors was determined for each compound by measuring the displacement of ^3 H-zacopride (specific ligand for 5-HT3 receptors) in rat area postrema homogenates.
Aliquot amounts (50-100 μl) of a membrane suspension (2.5-5.0 mg of protein/cm^3) are incubated for 30 minutes at 25° C. in a Tris-HCl buffer, 25 mM, pH 7,4, in the presence of 0.3-0.4 nM 3^H -zacopride (83 ci/mmol) (total volume: 0.5 cm^3). The incubation is terminated by filtering the samples through Whatman GF/B filters which are then washed and dried. The radioactivity retained on the filters is finally calculated by spectrometry in liquid medium (Aquasol). The non-specific binding is evaluated under the same conditions using samples containing in addition 1 μM of ondansetron (5-HT3 antagonist). The displacement curves obtained by adding increasing concentrations of a test compound to the incubation medium are analysed to determine the affinity of the test compounds for 5-HT3 receptors.

[5] = target: T4, 5-HT2C receptors (Rattus norvegicus, UniProt P08909); test: Displacement of N-methylmesulergine at 5-HT2C receptors; format: binding; settings: rat frontal cortex and hippocampus homogenates
T4 construct: rat frontal cortex and hippocampus homogenates; from tissue; host or cells: rat frontal cortex and hippocampus
T4 sequence (P08909 33-460): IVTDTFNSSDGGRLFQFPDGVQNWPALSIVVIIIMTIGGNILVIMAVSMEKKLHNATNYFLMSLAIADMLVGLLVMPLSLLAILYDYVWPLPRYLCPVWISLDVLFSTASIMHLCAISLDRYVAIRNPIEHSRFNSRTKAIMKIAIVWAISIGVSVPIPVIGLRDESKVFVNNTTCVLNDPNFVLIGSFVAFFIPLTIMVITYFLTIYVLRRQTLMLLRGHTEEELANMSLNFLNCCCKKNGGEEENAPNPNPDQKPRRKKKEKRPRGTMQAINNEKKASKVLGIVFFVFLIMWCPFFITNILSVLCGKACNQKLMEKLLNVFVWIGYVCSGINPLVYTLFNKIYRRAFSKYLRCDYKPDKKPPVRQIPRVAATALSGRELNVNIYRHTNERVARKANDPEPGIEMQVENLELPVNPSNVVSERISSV
Protocol: as §1, §2
for 5-HT2C receptors, by the displacement of N-methylmesulergine in rat frontal cortex and hippocampus homogenates, […]

[6] = target: T5, 5-HT2 receptors (Rattus norvegicus, UniProt P14842); test: Displacement of aminoiodoketaneserine at 5-HT2 receptors; format: binding; settings: rat frontal cortex homogenates
T5 construct: rat frontal cortex homogenates; from tissue; host or cells: rat frontal cortex
Protocol: as §1, §2
for 5-HT2 receptors, by the displacement of aminoiodoketaneserine in rat frontal cortex homogenates, […]

[7] = target: 5-HT1 receptors; test: Displacement of 5-OH tryptamine at 5-HT1 receptors; format: binding; settings: pig frontal cortex and striatum
Protocol: as §1, §2
for 5-HT1 receptors, by the displacement of 5-OH tryptamine in pig frontal cortex and striatum, […]

[8] = target: T6, 5-HT1B receptors (Rattus norvegicus, UniProt P28564); test: Displacement of 5-hydroxytryptamine at 5-HT1B receptors; format: binding; settings: rat cortex, striatum, and globus pallidus homogenates
T6 construct: rat cortex, striatum, and globus pallidus homogenates; from tissue; host or cells: rat cortex, striatum and globus pallidus
Protocol: as §1, §2
for 5-HT1B receptors, by the displacement of 5-hydroxytryptamine in rat cortex, striatum, and globus pallidus homogenates, […]

[9] = target: 5-HT1D receptors; test: Displacement of 5-OH-tryptamine at 5-HT1D receptors; format: binding; settings: rat cortex, striatum and globus pallidus homogenates
Protocol: as §1, §2
for 5-HT1D receptors, by the displacement of 5-OH-tryptamine in rat cortex, striatum and globus pallidus homogenates, […]

T5 sequence (P14842 whole entry): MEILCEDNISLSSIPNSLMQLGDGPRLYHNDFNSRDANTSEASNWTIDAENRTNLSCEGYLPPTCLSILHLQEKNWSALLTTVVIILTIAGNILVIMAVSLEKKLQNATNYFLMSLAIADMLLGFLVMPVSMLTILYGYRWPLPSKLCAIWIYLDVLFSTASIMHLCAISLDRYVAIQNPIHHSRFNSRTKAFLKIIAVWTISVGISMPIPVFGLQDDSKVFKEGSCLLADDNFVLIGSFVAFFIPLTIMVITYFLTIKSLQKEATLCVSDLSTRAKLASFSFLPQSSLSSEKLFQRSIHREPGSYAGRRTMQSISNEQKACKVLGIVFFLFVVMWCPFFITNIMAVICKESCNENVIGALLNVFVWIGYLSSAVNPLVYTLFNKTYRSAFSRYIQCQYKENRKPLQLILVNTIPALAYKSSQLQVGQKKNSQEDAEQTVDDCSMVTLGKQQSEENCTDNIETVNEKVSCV
T6 sequence (P28564 whole entry): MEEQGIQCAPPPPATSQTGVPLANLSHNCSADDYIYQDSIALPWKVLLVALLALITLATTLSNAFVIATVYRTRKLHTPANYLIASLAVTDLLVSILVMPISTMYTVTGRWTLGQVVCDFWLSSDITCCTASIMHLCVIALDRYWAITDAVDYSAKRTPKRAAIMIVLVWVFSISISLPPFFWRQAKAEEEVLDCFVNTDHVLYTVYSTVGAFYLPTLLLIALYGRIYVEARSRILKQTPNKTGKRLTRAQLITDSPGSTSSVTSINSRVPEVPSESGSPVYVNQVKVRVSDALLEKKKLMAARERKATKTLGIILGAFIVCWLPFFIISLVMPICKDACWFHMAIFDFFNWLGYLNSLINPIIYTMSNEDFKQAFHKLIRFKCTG
T1 sequence (P31652 whole entry): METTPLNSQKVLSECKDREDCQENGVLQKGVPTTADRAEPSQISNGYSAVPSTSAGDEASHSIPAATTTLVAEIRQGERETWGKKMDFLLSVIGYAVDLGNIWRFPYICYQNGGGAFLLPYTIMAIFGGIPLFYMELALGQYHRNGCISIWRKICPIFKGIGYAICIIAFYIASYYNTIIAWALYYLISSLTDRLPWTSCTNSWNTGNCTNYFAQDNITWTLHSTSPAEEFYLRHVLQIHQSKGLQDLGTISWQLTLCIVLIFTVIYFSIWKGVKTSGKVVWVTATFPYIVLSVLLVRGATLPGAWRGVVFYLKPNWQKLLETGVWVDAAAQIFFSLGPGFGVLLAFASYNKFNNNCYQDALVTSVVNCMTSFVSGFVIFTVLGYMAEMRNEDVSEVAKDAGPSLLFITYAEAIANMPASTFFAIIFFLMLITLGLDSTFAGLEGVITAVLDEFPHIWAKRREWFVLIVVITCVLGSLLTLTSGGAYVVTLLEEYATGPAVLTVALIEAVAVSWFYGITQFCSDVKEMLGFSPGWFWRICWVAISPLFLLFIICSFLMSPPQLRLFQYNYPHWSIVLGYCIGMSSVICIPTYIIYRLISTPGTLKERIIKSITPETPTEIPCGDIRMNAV

Cc1csc2c1-n1cccc1/C2=N/OCC(C)N(C)C (stereo not shown) [Example 22]
Number of transfers, percentage compared with the control group [1]: +76%
Time spent in the illuminated cage, percentage compared with the control group ([1]; *p < 0.5): +92%
IC50 [2]: 110 nM
IC50 [3]: 9 µM
IC50 [4]: 1 nM
IC50 [5]: 1600 nM
IC50 [6]: 11 µM
IC50 [7]: 6.9 µM
IC50 [8]: 11 µM
IC50 [9]: 6.4 µM

— US5627203A, “Tricyclic oxime ethers” (Adir et Compagnie, priority 1994, dated 1997)
